According to ChEMBL document CHEMBL3217590, “Discovery of a new class of dithiocarbamates and rhodanine scaffolds as potent antifungal agents: synthesis, biology and molecular docking” (Medchemcomm, 2012):
In brackets after ≈: the same amount, converted by molar mass.

Legend:
Candida albicans [1] = experiment: Antifungal activity against Candida albicans after 24 to 48 hrs by broth microdilution technique; format: functional
Candida parapsilosis = experiment: Antifungal activity against Candida parapsilosis ATCC22019 after 24 to 48 hrs by broth microdilution technique; format: functional; settings: Lodderomyces parapsilosis
Sporothrix schenckii [2] = experiment: Antifungal activity against Sporothrix schenckii after 72 to 96 hrs by broth microdilution technique; format: functional
[3] = system: Trichophyton mentagrophytes; experiment: Antifungal activity against Trichophyton mentagrophytes after 72 to 96 hrs by broth microdilution technique; format: functional
Aspergillus fumigatus = experiment: Antifungal activity against Aspergillus fumigatus after 72 to 96 hrs by broth microdilution technique; format: functional
Cryptococcus neoformans = experiment: Antifungal activity against Cryptococcus neoformans after 24 to 48 hrs by broth microdilution technique; format: functional
Sporothrix schenckii [4] = experiment: Ratio of fluconazole MIC to compound MIC against Sporothrix schenckii after 72 to 96 hrs by broth microdilution technique; format: functional
Sporothrix schenckii [5] = experiment: Ratio of clotrimazole MIC to compound MIC against Sporothrix schenckii after 72 to 96 hrs by broth microdilution technique; format: functional
Candida albicans [6] = experiment: Anticandidal activity against Candida albicans ATCC10231 after 24 to 48 hrs by broth microdilution technique; format: functional
Candida albicans [7] = experiment: Anticandidal activity against Candida albicans ATCC14053 after 24 to 48 hrs by broth microdilution technique; format: functional
Candida albicans [8] = experiment: Anticandidal activity against Candida albicans CDRI after 24 to 48 hrs by broth microdilution technique; format: functional
Candida albicans [9] = experiment: Anticandidal activity against Candida albicans isolated from patient after 24 to 48 hrs by broth microdilution technique; format: functional
Candida albicans [10] = experiment: Anticandidal activity against Candida albicans MTCC183 after 24 to 48 hrs by broth microdilution technique; format: functional
Candida albicans [11] = experiment: Anticandidal activity against Candida albicans ATCC750 after 24 to 48 hrs by broth microdilution technique; format: functional
Candida albicans [12] = experiment: Anticandidal activity against Candida albicans ATCC-MYA 2950 after 24 to 48 hrs by broth microdilution technique; format: functional
Candida albicans [13] = experiment: Anticandidal activity against amphotericin-B resistant Candida albicans after 24 to 48 hrs by broth microdilution technique; format: functional
Candida albicans [14] = experiment: Ratio of fluconazole MIC to compound MIC against amphotericin-B resistant Candida albicans after 24 to 48 hrs by broth microdilution technique; format: functional
L929 [15] = experiment: Cytotoxicity against mouse L929 cells assessed as morphological changes up to 3.12 ug/ml after 24 hrs by giemsa staining based phase contrast microscopy; format: cell-based; settings: l929, 24 h
L929 [16] = experiment: Cytotoxicity against mouse L929 cells assessed as decline in cell survival at 12.5 to 50 ug/ml after 24 hrs by spectrophotometric analysis; format: cell-based; settings: l929, 24 h

Work on C=CCSC(=S)NCc1ccncc1 yielded an MIC (Candida albicans [1]) of 1.56 µg/mL (≈ 6.95 µM), an MIC (Candida parapsilosis) of 1.56 µg/mL (≈ 6.95 µM) and an MIC (Sporothrix schenckii [2]) of 0.39 µg/mL (≈ 1.74 µM). The MIC [3] was 3.12 µg/mL (≈ 13.9 µM), the MIC (Aspergillus fumigatus) was 25 µg/mL (≈ 111 µM) and the MIC (Cryptococcus neoformans) was 3.12 µg/mL (≈ 13.9 µM). The Ratio (Sporothrix schenckii [4]) was 12, the Ratio (Sporothrix schenckii [5]) was 12 and the MIC (Candida albicans [6]) was 1.56 µg/mL (≈ 6.95 µM). For the same compound, the MIC (Candida albicans [7]) was 0.78 µg/mL (≈ 3.48 µM), the MIC (Candida albicans [8]) was 1.56 µg/mL (≈ 6.95 µM) and the MIC (Candida albicans [9]) was 1.56 µg/mL (≈ 6.95 µM). For the same compound, the MIC (Candida albicans [10]) was 0.78 µg/mL (≈ 3.48 µM), the MIC (Candida albicans [11]) was 3.12 µg/mL (≈ 13.9 µM) and the MIC (Candida albicans [12]) was 1.56 µg/mL (≈ 6.95 µM). For the same compound, the MIC (Candida albicans [13]) was 6.25 µg/mL (≈ 27.9 µM), the Ratio (Candida albicans [14]) was 1 and the Activity (L929 [15]) was “Non-toxic”. For the same compound, the Activity (L929 [16]) was “Toxic”.

Work on CCCSC(=S)NCc1ccncc1 yielded an MIC (Candida albicans [1]) of 6.25 µg/mL (≈ 27.6 µM), an MIC (Candida parapsilosis) of 12.5 µg/mL (≈ 55.2 µM) and an MIC (Sporothrix schenckii [2]) of 0.39 µg/mL (≈ 1.72 µM). The MIC [3] was 3.12 µg/mL (≈ 13.8 µM), the MIC (Aspergillus fumigatus) was 50 µg/mL (≈ 221 µM) and the MIC (Cryptococcus neoformans) was 12.5 µg/mL (≈ 55.2 µM). For the same compound, the Ratio (Sporothrix schenckii [4]) was 12, the Ratio (Sporothrix schenckii [5]) was 12 and the MIC (Candida albicans [6]) was 6.25 µg/mL (≈ 27.6 µM). It also gave an MIC (Candida albicans [7]) of 6.25 µg/mL (≈ 27.6 µM), an MIC (Candida albicans [8]) of 6.25 µg/mL (≈ 27.6 µM) and an MIC (Candida albicans [9]) of 12.5 µg/mL (≈ 55.2 µM). The MIC (Candida albicans [10]) was 1.56 µg/mL (≈ 6.89 µM), the MIC (Candida albicans [11]) was 12.5 µg/mL (≈ 55.2 µM) and the MIC (Candida albicans [12]) was 12.5 µg/mL (≈ 55.2 µM). The MIC (Candida albicans [13]) was 3.12 µg/mL (≈ 13.8 µM), the Ratio (Candida albicans [14]) was 2 and the Activity (L929 [15]) was “Non-toxic”. For the same compound, the Activity (L929 [16]) was “Toxic”.
